Source: patent US10874621B2, “Cationic nanoparticles for co-delivery of nucleic acids and therapeutic agents” (The Brigham and Women's Hospital, Inc., priority 2013, dated 2020)

Experiment: Solubility of compound 1 in organic solvents
Type: physicochemical
Details: organic solvents like DMSO and dichloromethane (DCM)

solubility in organic solvents: sufficiently soluble
Substance: cis,cis,trans-[Pt(NH3)2Cl2(OOC(CH2)8CH3)2] [Compound 1]
